Converted amounts (≈) assume the structure as drawn.
Columns and labels:
Experiment in all cases: ≥ marks a high value that may be exact or a test limit, other limits are often not marked, values filed in µg/mL are converted to µM
[1] = test system: Streptococcus uberis
[2] = test system: Escherichia coli
[3] = test system: Pasteurella multocida
[4] = test system: Listeria innocua
[5] = test system: Micrococcus luteus
[6] = test system: Staphylococcus aureus
[7] = test system: Leuconostoc lactis
[8] = test system: Staphylococcus epidermidis
[9] = test system: Bacillus cereus
[10] = test system: Bacillus subtilis 168
[11] = test system: Escherichia coli B
[12] = test system: Pseudomonas aeruginosa
[13] = test system: Candida albicans F7-39/IDE99
[14] = test system: Staphylococcus epidermidis ATCC 12228
[15] = test system: Staphylococcus aureus TK784
[16] = test system: Staphylococcus aureus ATCC 6538P
[17] = test system: Klebsiella pneumoniae ATCC 10031
[18] = test system: Pseudomonas aeruginosa ATCC 27853
[19] = test system: Salmonella enterica subsp. enterica serovar Typhimurium ATCC 14028
[20] = test system: Micrococcus luteus ATCC 10240
[21] = test system: Bacillus subtilis ATCC 6633
[22] = test system: Escherichia coli ATCC 25922
[23] = test system: Shigella dysenteriae ATCC 9752
[24] = test system: Acinetobacter baumannii
[25] = test system: Salmonella enterica subsp. enterica serovar Typhimurium C77-31
[26] = test system: Staphylococcus aureus ATCC 25923
[27] = test system: Escherichia coli UB1005
[28] = test system: Staphylococcus aureus ATCC 29213
[29] = test system: Micrococcus luteus ATCC 4698
[30] = test system: Escherichia coli DH5alpha
[31] = test system: Staphylococcus aureus ATCC 6538

SMILES	MIC [1] [µM]	MIC [2] [µM]	MIC [3] [µM]	MIC [4] [µM]	MIC [6] [µM]	MIC [7] [µM]	MIC [8] [µM]	MIC [9] [µM]	MIC [12] [µM]	MIC [14] [µM]	also measured
CC[C@H](C)[C@H](NC(=O)[C@@H](NC(=O)[C@H](C)NC(=O)[C@@H](NC(=O)[C@@H](NC(=O)[C@H](Cc1cnc[nH]1)NC(=O)[C@H](C)NC(=O)[C@H](CC(C)C)NC(=O)[C@@H](NC(=O)[C@H](Cc1cnc[nH]1)NC(=O)[C@H](CCCCN)NC(=O)[C@H](C)NC(=O)[C@@H](NC(=O)[C@H](CO)NC(=O)CNC(=O)[C@H](CC(C)C)NC(=O)[C@@H](NC(=O)[C@H](CO)NC(=O)[C@H](CC(C)C)NC(=O)[C@H](CC(C)C)NC(=O)CN)C(C)C)C(C)C)C(C)C)C(C)C)C(C)C)C(C)C)C(=O)N[C@@H](C)C(=O)N[C@@H](CCC(=O)O)C(=O)N[C@@H](Cc1cnc[nH]1)C(=O)N[C@@H](CC(C)C)C(N)=O [GLLSVLGSVAKHVLAHVVAVIAEHL]	≥ 39.5	> 39.5	≥ 39.5	≥ 39.5	> 39.5	9.87 (≈ 25 µg/mL)	≥ 39.5	≥ 39.5			MIC [5]: ≥ 39.5 µM
CC(C)C[C@H](NC(=O)[C@@H](NC(=O)[C@H](CCCCN)NC(=O)[C@H](CCCCN)NC(=O)[C@H](CC(C)C)NC(=O)[C@H](CC(C)C)NC(=O)[C@H](CCCCN)NC(=O)[C@H](CC(C)C)NC(=O)[C@H](C)NC(=O)[C@H](CCCCN)NC(=O)CNC(=O)[C@H](Cc1ccccc1)NC(=O)CN)C(C)C)C(N)=O [GFGKALKLLKKVL]					10 (≈ 14.1 µg/mL)				10 (≈ 14.1 µg/mL)		MIC [10]: 1.8 µM (≈ 2.54 µg/mL); MIC [11]: 2.5 µM (≈ 3.53 µg/mL); MIC [13]: 5 µM (≈ 7.07 µg/mL)
CC(C)C[C@H](NC(=O)[C@H](CC(C)C)NC(=O)[C@H](CCCCN)NC(=O)[C@H](CCCCN)NC(=O)[C@H](CC(C)C)NC(=O)[C@H](Cc1c[nH]c2ccccc12)NC(=O)[C@H](CCCCN)NC(=O)[C@H](CC(C)C)NC(=O)[C@H](CC(C)C)NC(=O)[C@@H](N)CCCCN)C(=O)N[C@@H](CCCCN)C(N)=O [KLLKWLKKLLK]										1.42 (≈ 2 µg/mL)	MIC [15]: 5.67 µM (≈ 7.99 µg/mL); MIC [16]: 1.42 µM (≈ 2 µg/mL); MIC [17]: 1.42 µM (≈ 2 µg/mL); MIC [18]: 5.67 µM (≈ 7.99 µg/mL); MIC [19]: 1.42 µM (≈ 2 µg/mL); MIC [20]: 1.42 µM (≈ 2 µg/mL); MIC [21]: 1.42 µM (≈ 2 µg/mL); MIC [22]: 1.42 µM (≈ 2 µg/mL); MIC [23]: 1.42 µM (≈ 2 µg/mL)
CC(C)C[C@H](NC(=O)[C@H](CCCN=C(N)N)NC(=O)[C@H](Cc1c[nH]c2ccccc12)NC(=O)[C@H](CCCN=C(N)N)NC(=O)[C@@H](NC(=O)[C@H](CCCCN)NC(=O)[C@H](Cc1c[nH]c2ccccc12)NC(=O)[C@H](CCCN=C(N)N)NC(=O)[C@H](CC(C)C)NC(=O)[C@H](CCCN=C(N)N)NC(=O)[C@@H](N)Cc1c[nH]c2ccccc12)[C@@H](C)O)C(=O)N[C@@H](CCCCN)C(N)=O [WRLRWKTRWRLK]		2.83 (≈ 5.05 µg/mL)			2 (≈ 3.57 µg/mL)				8 (≈ 14.3 µg/mL)	4 (≈ 7.14 µg/mL)	MIC [24]: 4 µM (≈ 7.14 µg/mL); MIC [25]: 2 µM (≈ 3.57 µg/mL); MIC [26]: 2 µM (≈ 3.57 µg/mL); MIC [27]: 2 µM (≈ 3.57 µg/mL)
CC(C)C[C@H](NC(=O)[C@H](CCCCN)NC(=O)[C@H](Cc1c[nH]c2ccccc12)NC(=O)[C@H](CCCCN)NC(=O)[C@H](CC(C)C)NC(=O)[C@H](CCCCN)NC(=O)[C@H](Cc1c[nH]c2ccccc12)NC(=O)[C@H](CCCCN)NC(=O)[C@H](CC(C)C)NC(=O)[C@H](CCCCN)NC(=O)[C@@H](N)Cc1c[nH]c2ccccc12)C(=O)N[C@@H](CCCCN)C(N)=O [WKLKWKLKWKLK]		2 (≈ 3.37 µg/mL)			2 (≈ 3.37 µg/mL)				4 (≈ 6.74 µg/mL)	2 (≈ 3.37 µg/mL)	MIC [24]: 2.83 µM (≈ 4.76 µg/mL); MIC [25]: 2 µM (≈ 3.37 µg/mL); MIC [26]: 2 µM (≈ 3.37 µg/mL); MIC [28]: 2 µM (≈ 3.37 µg/mL); MIC [22]: 4 µM (≈ 6.74 µg/mL); MIC [27]: 4 µM (≈ 6.74 µg/mL)
CC[C@H](C)[C@H](NC(=O)[C@@H](NC(=O)[C@H](CCCCN)NC(=O)[C@H](C)NC(=O)[C@@H](NC(=O)[C@H](CCCCN)NC(=O)[C@H](CCCCN)NC(=O)[C@@H](NC(=O)[C@@H](NC(=O)[C@H](CCCCN)NC(=O)[C@H](Cc1ccccc1)NC(=O)[C@H](CC(C)C)NC(=O)CN)C(C)C)[C@@H](C)CC)C(C)C)C(C)C)C(=O)N[C@@H](CCCCN)C(=O)N[C@@H](CCCCN)C(=O)N[C@@H](CC(C)C)C(N)=O [GLFKVIKKVAKVIKKL]	27.6 (≈ 50 µg/mL)	55.2 (≈ 99.9 µg/mL)	≥ 55.2	13.8 (≈ 25 µg/mL)	27.6 (≈ 50 µg/mL)	3.31 (≈ 6 µg/mL)	6.62 (≈ 12 µg/mL)	27.6 (≈ 50 µg/mL)			MIC [5]: 13.8 µM (≈ 25 µg/mL)
CC(C)C[C@H](NC(=O)[C@H](CC(C)C)NC(=O)[C@H](CCCCN)NC(=O)[C@H](CO)NC(=O)[C@H](CC(C)C)NC(=O)[C@H](C)NC(=O)[C@H](CCCCN)NC(=O)[C@H](Cc1ccccc1)NC(=O)[C@H](CC(C)C)NC(=O)[C@H](C)NC(=O)CNC(=O)[C@@H](NC(=O)[C@@H](N)Cc1ccccc1)C(C)C)C(=O)O [FVGALFKALSKLL]										15.6 (≈ 22 µg/mL)	MIC [29]: 4.27 µM (≈ 6 µg/mL); MIC [30]: ≥ 35.5 µM; MIC [31]: 8.53 µM (≈ 12 µg/mL)
CC(C)C[C@H](NC(=O)[C@H](CCCN=C(N)N)NC(=O)[C@H](Cc1c[nH]c2ccccc12)NC(=O)[C@H](CCCN=C(N)N)NC(=O)[C@H](CC(C)C)NC(=O)[C@H](CCCN=C(N)N)NC(=O)[C@H](Cc1c[nH]c2ccccc12)NC(=O)[C@H](CCCN=C(N)N)NC(=O)[C@H](CC(C)C)NC(=O)[C@H](CCCN=C(N)N)NC(=O)[C@@H](N)Cc1c[nH]c2ccccc12)C(=O)N[C@@H](CCCN=C(N)N)C(N)=O [WRLRWRLRWRLR]		2 (≈ 3.7 µg/mL)			1 (≈ 1.85 µg/mL)				4 (≈ 7.41 µg/mL)	2 (≈ 3.7 µg/mL)	MIC [24]: 2.83 µM (≈ 5.24 µg/mL); MIC [25]: 2 µM (≈ 3.7 µg/mL); MIC [26]: 2 µM (≈ 3.7 µg/mL); MIC [28]: 1 µM (≈ 1.85 µg/mL); MIC [22]: 4 µM (≈ 7.41 µg/mL); MIC [27]: 2 µM (≈ 3.7 µg/mL)
CC[C@H](C)[C@H](NC(=O)[C@H](CC(C)C)NC(=O)[C@H](CC(=O)O)NC(=O)CNC(=O)[C@@H](NC(=O)CN)C(C)C)C(=O)N[C@@H](CCCN=C(N)N)C(=O)N[C@@H](CCCCN)C(=O)N[C@@H](C)C(=O)N[C@H](C(=O)N[C@@H](CO)C(=O)N[C@H](C(=O)N[C@H](C(=O)N[C@@H](CCCCN)C(=O)N[C@@H](CC(N)=O)C(=O)N[C@H](C(=O)N[C@H](C(N)=O)C(C)C)[C@@H](C)CC)[C@@H](C)CC)C(C)C)C(C)C [GVGDLIRKAVSVIKNIV]	7.02 (≈ 12.5 µg/mL)	> 56.1	≥ 56.1	14 (≈ 25 µg/mL)	28.1 (≈ 50 µg/mL)	1.68 (≈ 3 µg/mL)	7.02 (≈ 12.5 µg/mL)	14 (≈ 25 µg/mL)			
CC(C)C[C@H](NC(=O)[C@H](C)NC(=O)CNC(=O)[C@H](CC(C)C)NC(=O)[C@@H](N)Cc1ccccc1)C(=O)N[C@@H](Cc1ccccc1)C(=O)N[C@@H](CCCCN)C(=O)N[C@@H](C)C(=O)N[C@@H](CC(C)C)C(=O)N[C@@H](CO)C(=O)N[C@@H](CCCCN)C(=O)N[C@@H](CC(C)C)C(=O)N[C@H](C(=O)O)C(C)C [FLGALFKALSKLV]										12.8 (≈ 18 µg/mL)	MIC [29]: 4.27 µM (≈ 6 µg/mL); MIC [30]: ≥ 35.5 µM; MIC [31]: 7.82 µM (≈ 11 µg/mL)
CC[C@H](C)[C@H](NC(=O)[C@@H](NC(=O)CN)C(C)C)C(=O)N[C@@H](CC(=O)O)C(=O)N[C@@H](C)C(=O)N[C@@H](C)C(=O)N[C@@H](CCCCN)C(=O)N[C@@H](CCCCN)C(=O)N[C@H](C(=O)N[C@H](C(=O)N[C@@H](CC(N)=O)C(=O)N[C@H](C(=O)N[C@@H](CC(C)C)C(=O)N[C@@H](C)C(=O)N[C@@H](CC(N)=O)C(=O)N[C@@H](CC(C)C)C(=O)N[C@@H](Cc1ccccc1)C(N)=O)C(C)C)C(C)C)C(C)C [GVIDAAKKVVNVLANLF]	28.2 (≈ 50 µg/mL)	> 56.5	≥ 56.5	≥ 56.5	> 56.5	6.78 (≈ 12 µg/mL)	≥ 56.5	≥ 56.5			MIC [5]: ≥ 56.5 µM
